{
  "source": "ChEMBL document CHEMBL5316313",
  "about": "“Discovery of Novel 3-Phenylpiperidine Derivatives Targeting the β-Catenin/B-Cell Lymphoma 9 Interaction as a Single Agent and in Combination with the Anti-PD-1 Antibody for the Treatment of Colorectal Cancer” (J Med Chem, 2023)",
  "key": {"Beta catenin-BCL9": {"biological_target": "T1, Beta catenin-BCL9 (Mus musculus, UniProt Q02248+Q9D219)", "T1 sequence (Q02248 whole entry)": "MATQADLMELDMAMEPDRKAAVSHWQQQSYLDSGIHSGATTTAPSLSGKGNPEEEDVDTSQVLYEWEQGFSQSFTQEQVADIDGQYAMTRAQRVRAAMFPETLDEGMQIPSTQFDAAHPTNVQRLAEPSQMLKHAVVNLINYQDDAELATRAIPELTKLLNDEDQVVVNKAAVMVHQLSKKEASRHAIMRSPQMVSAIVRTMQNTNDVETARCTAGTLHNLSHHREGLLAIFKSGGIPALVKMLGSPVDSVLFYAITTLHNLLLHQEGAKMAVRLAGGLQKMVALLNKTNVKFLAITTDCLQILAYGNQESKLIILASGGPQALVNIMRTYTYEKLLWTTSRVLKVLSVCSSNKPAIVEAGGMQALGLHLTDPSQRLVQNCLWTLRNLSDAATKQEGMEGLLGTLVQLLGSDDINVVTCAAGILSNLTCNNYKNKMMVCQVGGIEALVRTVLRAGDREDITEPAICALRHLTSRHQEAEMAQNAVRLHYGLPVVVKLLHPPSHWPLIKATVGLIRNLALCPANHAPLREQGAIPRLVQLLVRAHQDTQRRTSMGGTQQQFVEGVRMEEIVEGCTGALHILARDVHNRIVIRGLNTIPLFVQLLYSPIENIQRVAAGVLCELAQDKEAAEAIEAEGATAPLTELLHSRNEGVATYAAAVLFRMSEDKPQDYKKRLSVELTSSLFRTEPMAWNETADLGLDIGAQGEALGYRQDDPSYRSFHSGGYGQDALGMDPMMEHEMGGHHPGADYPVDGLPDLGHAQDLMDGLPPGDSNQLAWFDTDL", "T1 sequence (Q9D219 whole entry)": "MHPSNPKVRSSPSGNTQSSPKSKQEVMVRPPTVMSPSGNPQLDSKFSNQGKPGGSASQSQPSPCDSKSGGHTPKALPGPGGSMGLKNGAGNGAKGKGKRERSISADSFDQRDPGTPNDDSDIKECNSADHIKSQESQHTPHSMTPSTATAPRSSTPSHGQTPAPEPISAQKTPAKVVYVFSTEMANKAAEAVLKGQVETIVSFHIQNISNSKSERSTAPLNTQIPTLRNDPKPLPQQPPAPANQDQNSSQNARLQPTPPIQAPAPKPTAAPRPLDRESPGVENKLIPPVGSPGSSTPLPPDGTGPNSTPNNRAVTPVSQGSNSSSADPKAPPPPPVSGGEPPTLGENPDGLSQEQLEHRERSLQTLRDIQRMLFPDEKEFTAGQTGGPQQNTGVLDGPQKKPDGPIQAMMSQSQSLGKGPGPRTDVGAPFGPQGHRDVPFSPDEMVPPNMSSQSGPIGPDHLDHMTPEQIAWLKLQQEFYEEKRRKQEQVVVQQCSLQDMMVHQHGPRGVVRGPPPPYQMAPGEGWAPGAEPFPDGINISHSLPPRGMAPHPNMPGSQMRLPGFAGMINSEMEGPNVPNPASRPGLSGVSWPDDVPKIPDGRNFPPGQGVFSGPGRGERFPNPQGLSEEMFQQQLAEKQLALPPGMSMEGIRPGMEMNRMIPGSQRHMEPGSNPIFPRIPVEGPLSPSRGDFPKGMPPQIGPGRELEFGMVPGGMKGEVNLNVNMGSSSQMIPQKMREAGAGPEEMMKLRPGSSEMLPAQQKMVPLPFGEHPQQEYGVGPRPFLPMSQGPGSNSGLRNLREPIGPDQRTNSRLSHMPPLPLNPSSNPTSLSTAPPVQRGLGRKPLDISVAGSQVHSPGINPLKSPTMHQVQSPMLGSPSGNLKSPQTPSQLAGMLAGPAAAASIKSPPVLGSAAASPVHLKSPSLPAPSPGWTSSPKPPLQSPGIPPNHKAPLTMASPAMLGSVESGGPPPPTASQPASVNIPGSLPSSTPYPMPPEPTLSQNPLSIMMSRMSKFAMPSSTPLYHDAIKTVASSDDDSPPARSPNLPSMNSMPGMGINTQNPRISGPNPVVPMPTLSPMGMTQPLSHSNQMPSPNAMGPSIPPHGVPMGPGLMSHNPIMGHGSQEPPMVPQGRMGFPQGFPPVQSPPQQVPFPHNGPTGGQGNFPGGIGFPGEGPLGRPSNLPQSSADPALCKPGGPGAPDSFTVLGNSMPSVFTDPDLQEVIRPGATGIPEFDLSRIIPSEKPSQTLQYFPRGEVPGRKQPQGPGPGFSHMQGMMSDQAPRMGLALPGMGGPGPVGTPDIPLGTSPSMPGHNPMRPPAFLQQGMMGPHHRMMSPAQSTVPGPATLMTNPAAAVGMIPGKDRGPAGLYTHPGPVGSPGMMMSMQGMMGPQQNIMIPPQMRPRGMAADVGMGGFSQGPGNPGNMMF", "assay": "Inhibition of beta-catenin/BCL9 protein-protein interaction in Wnt-dependent BCL9 knockdown mouse CT26 cells assessed as reduction in Axin2 expression level by qRT-PCR assay", "assay_type": "cell-based"}, "[1]": {"assay": "Toxicity in BALB/c mouse xenografted with mouse CT26 cells assessed as pathological changes in liver at 30 mg/kg, ip QD in presence of anti-PD-1 antibody cotreatment at 10 mg/kg,ip BIW by hematoxylin and eosin staining based microscopic analysis", "assay_type": "organism-based", "conditions": "in vivo"}, "[2]": {"assay": "Toxicity in BALB/c mouse xenografted with mouse CT26 cells assessed as pathological changes in lung at 30 mg/kg, ip QD by hematoxylin and eosin staining based microscopic analysis", "assay_type": "organism-based", "conditions": "in vivo"}, "[3]": {"assay": "Toxicity in BALB/c mouse xenografted with mouse CT26 cells assessed as pathological changes in heart at 30 mg/kg, ip QD by hematoxylin and eosin staining based microscopic analysis", "assay_type": "organism-based", "conditions": "in vivo"}, "CT26 [4]": {"test_system": "CT26", "assay": "Antitumor activity against mouse CT26 cells xenografted in BALB/c mouse assessed as tumor growth inhibition at 30 mg/kg, ip QD and measured upto 9 days", "assay_type": "functional", "conditions": "CT26, 216 h, time <= 9 day, read-out: TGI"}, "CT26 [5]": {"test_system": "CT26", "assay": "Synergistic antitumor activity in mouse CT26 cells xenografted in BALB/c mouse assessed as decrease in Foxp3 expression in Treg tumor cells at 30 mg/kg, ip QD in presence of anti-PD-1 antibody cotreatment at 10 mg/kg,ip BIW by qRT-PCR analysis", "assay_type": "functional, organism-based"}, "CT26 [6]": {"test_system": "CT26", "assay": "Induction of apoptosis in Wnt-dependent mouse CT26 cells assessed as viable cells at 20 uM incubated for 24 hrs by Annexin V-Alexa Fluor 647/PI staining based flow cytomtery (Rvb=70.7%)", "assay_type": "functional", "conditions": "read-out: Activity"}, "CT26 [7]": {"test_system": "CT26", "assay": "cells", "conditions": "Mus musculus, CT26, 48 h"}, "CT26 [8]": {"test_system": "CT26", "assay": "Induction of apoptosis in Wnt-dependent mouse CT26 cells assessed as necrotic cells at 10 uM incubated for 24 hrs by Annexin V-Alexa Fluor 647/PI staining based flow cytomtery (Rvb=1.04%)", "assay_type": "functional"}},
  "note": "The source made the active and inactive calls. No cut-off for these calls is given here.",
  "data": [
    {"smiles": "CC(C)c1ccc(-c2cccc(S(=O)(=O)N3CCCC(c4cccc(OC(C)(C)C(=O)NS(=O)(=O)c5ccc(C(F)(F)F)cc5)c4)C3)c2)cc1", "note": "(centres undefined)", "values": [
      {"measurement": "IC50", "setting": "Beta catenin-BCL9", "result": 51.6, "unit": "µM"},
      {"measurement": "Activity", "setting": "[1]", "result": "Non-Toxic"},
      {"measurement": "Activity", "setting": "[2]", "result": "Non-Toxic"},
      {"measurement": "Activity", "setting": "[3]", "result": "Non-Toxic"},
      {"measurement": "inhibition in vivo at 30 mg/kg", "setting": "CT26 [4]", "result": 67.6, "unit": "%"},
      {"measurement": "Activity", "setting": "CT26 [5]", "result": "Active"},
      {"measurement": "viability at 20 µM", "setting": "CT26 [6]", "result": 16, "unit": "%"},
      {"measurement": "IC50", "setting": "CT26 [7]", "result": 69.7, "unit": "µM"},
      {"measurement": "Activity", "setting": "CT26 [8]", "result": 1.91, "unit": "%"}
    ]}
  ]
}
